The assay deals with T1, ZPH1101 (Bacillus subtilis, UniProt O34796).
T1 construct: gene yvkC; full-length zph1101 in pET29a, N-terminal 6xHis, E. coli BL21(DE3), Ni-NTA, 90 kDa
The assay can be described thus: HPLC of residual ZEA, Michaelis-Menten fit. The class given is biochemical. The following applies: ATP, Mg2+; pH 8.0, 45 °C. Here is the method: HPLC of residual ZEA, Michaelis-Menten fit on ZPH1101 | Michaelis constant (Km), and catalytic constant (kcat) were calculated through fitting to be

T1 sequence (O34796 whole entry): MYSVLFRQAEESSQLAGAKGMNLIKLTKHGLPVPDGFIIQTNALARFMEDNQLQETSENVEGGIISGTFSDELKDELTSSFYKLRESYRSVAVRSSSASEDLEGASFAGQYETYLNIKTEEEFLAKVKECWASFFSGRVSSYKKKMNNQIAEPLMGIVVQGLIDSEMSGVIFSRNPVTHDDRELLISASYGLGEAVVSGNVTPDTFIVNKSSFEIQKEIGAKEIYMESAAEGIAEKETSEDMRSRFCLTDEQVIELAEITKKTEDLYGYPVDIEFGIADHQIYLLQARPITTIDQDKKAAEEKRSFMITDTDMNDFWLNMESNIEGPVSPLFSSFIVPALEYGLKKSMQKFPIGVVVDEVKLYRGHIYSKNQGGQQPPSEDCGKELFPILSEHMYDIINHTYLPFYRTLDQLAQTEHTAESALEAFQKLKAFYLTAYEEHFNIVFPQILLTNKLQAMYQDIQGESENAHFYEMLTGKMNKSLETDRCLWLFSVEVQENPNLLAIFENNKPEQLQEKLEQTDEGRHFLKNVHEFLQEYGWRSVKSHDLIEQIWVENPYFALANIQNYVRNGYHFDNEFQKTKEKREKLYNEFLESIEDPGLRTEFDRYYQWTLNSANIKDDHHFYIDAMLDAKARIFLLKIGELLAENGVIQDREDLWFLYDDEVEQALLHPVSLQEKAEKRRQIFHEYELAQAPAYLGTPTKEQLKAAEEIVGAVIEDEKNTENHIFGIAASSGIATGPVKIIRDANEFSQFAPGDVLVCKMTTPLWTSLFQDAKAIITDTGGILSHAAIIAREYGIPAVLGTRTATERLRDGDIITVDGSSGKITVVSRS

One may read the Km as the substrate concentration at which the rate is half of its maximum. In the case of `C[C@H]1CCCC(=O)CCC/C=C/c2cc(O)cc(O)c2C(=O)O1` [zearalenone], the Km is 18.2 µM.

(Values after PMC11768653, “Characterization of the Phosphotransferase from Bacillus subtilis 1101 That Is Responsible for the Biotransformation of Zearalenone” (Toxins, 2025).)
